These results are taken from patent US20050124533A1, “Glucocorticoid blocking agents for increasing blood-brain barrier permeability stan-261con” (priority 2002, published 2005).

The structures appear in SMILES notation. Where only a bound is given, the exact number is not on record here.

Series [1] deals with sensitive bacterial strains. The conditions noted are these: cited from earlier work.
The conditions of series [2]: in vivo; cited from earlier work.
Series [3] deals with dopamine metabolites HVA and DOPAC in the brain. Nature of the series: Example 2: brain dopamine metabolites (HVA, DOPAC) in rats given mifepristone or placebo pellet. In kind it is in vivo, rat. The following applies: mifepristone 200 mg 10-day sustained-release pellet. The procedure:
Rats (male Sprague Dawley 175-200 grams) are maintained, 3 rats per cage, under controlled temperature and lighting (12 hours light/12 hours dark) with food and water ad libitum. […] Two hours prior to sacrifice the animals are injected with either haloperidol (1 mg/kg s.c; […] RBI, Natick, Mass.) or vehicle (0.9% saline plus 0.8% acetic acid). Animal sacrifice is by decapitation during the first four hours of the light cycle. Blood is collected and brains removed and frozen on dry ice for storage at −80° C. Frozen brains are sliced into 250 μm sections with a cryostat. The medial prefrontal cortex (AP 13.7 to 12.2 mm) is dissected with a scalpel, the striatum (AP 10.7 to 9.7 mm) is removed with stainless steel cannulae from frozen slices and the core and shell of the nucleus accumbens (AP 10.7 to 9.7 mm) is removed. Brain regions are dissected within 24-72 hours of slicing. […] Dopamine metabolites homovanillic acid (HVA) and dihydroxyphenylacetic acid (DOPAC) are measured in the brains of the experimental animals. […] DOPAC and HVA were detected using an electrochemical detector. […] Brain clozapine levels are analyzed by National Medical Services, Inc. (Willow Grove, PN) while brain and plasma haloperidol and reduced haloperidol and plasma clozapine levels are analyzed by Analytical Psychopharmacology Laboratories (Nathan Kline Institute, Orangeburg, N.Y.), both by gas chromotography.

Series [4] concerns blood-brain barrier (BBB) permeability. Nature of the series: Example 4: brain ampicillin concentration in rats given mifepristone or placebo. It counts as in vivo, rat. The conditions noted are these: mifepristone 200 mg 10-day sustained release pellet; ampicillin 1.5 mg i.v. The procedure:
Animal sacrifice is by decapitation during the first four hours of the light cycle. Blood is collected and brains removed and frozen on dry ice for storage at −80° C. Ampicillin concentration is measured in the brains of the experimental animals.

For series [5] the test system is unchanged. Nature of the series: Example 2: brain haloperidol and clozapine levels in rats given mifepristone or placebo pellet. It counts as in vivo, rat. The following applies: mifepristone 200 mg 10-day sustained-release pellet. The procedure: Animal sacrifice is by decapitation during the first four hours of the light cycle. Blood is collected and brains removed and frozen on dry ice for storage at −80° C.

For series [6] the test system is unchanged. Nature of the series: Example 5: brain methotrexate concentration in rats given mifepristone or placebo. The conditions noted are these: mifepristone 200 mg 10 day sustained-release pellet; methotrexate 0.5 mg i.v. It counts as in vivo, rat. The procedure: Animal sacrifice is by decapitation during the first four hours of the light cycle. Blood is collected and brains removed and-frozen on dry ice for storage at −80° C. Methotrexate concentration is measured in the brains of the experimental animals.

Series [7] shares this test system. Nature of the series: Example 3: brain Amphotericin B concentration in rats given mifepristone or placebo. In kind it is in vivo, rat. The conditions noted are these: mifepristone 200 mg 10-day sustained release pellet; Amphotericin B 0.1 mg i.v.
Series [8] has the same test system. Nature of the series: Example 6: brain adriamycin concentration in rats given mifepristone or placebo. It counts as in vivo, rat. The following applies: mifepristone 2 mg s.c. four hours prior to sacrifice; adriamycin 0.5 mg i.v. The procedure:
Animal sacrifice is by decapitation during the first four hours of the light cycle. Blood is collected and brains removed and frozen on dry ice for storage at −80° C. Adriamycin concentration is measured in the brains of the experimental animals.

Series [9] has as its system dopamine metabolites HVA and DOPAC in the brain. Nature of the series: Example 1: brain dopamine metabolites (HVA, DOPAC) in adrenalectomized rats with corticosterone or placebo pellets. It counts as in vivo, rat. The conditions noted are these: vehicle (placebo) pellet animals; haloperidol 1 mg/kg s.c. or clozapine 15 mg/kg s.c. two hours prior to sacrifice.
Description: The implanted pellets contained either 100 mg corticosterone (for haloperidol experiments), 50 mg corticosterone (for clozapine experiments) or placebo. Two hours prior to sacrifice the animals were injected with either haloperidol (1 mg/kg s.c; RBI Natick, Mass.) or an equivalent volume of vehicle (0.3% tartaric acid, pH 5.3) or with either clozapine (15 mg/kg s.c.; RBI, Natick, Mass.) or vehicle (0.9% saline plus 0.8% acetic acid).
Animals were sacrificed by decapitation during the first four hours of the light cycle, blood collected and brains removed and frozen on dry ice and stored at −80° C. Corticosterone was measured in plasma by radioimmunoassay (ICN Biochem, Costa Mesa, Calif.) to confirm adrenalectomy and corticosterone replacement. […] Brain regions were dissected within 24-72 hours of slicing. Tissue was placed in 0.1 M perchloric acid with 0.1 mM EDTA and stored for no longer than 2 weeks at −80° C.
Dopamine metabolites homovanillic acid (HVA) and dihydroxyphenylacetic acid (DOPAC) were measured in the brains of the experimental animals. Samples were thawed, homogenized by sonication in 0.1 M perchloric acid/0.1 mM EDTA, and centrifuged for 2 minutes. Tissue pellets were dissolved in 1.0 N NaOH for protein determination (Bio-Rad, Richmond, Calif.). […] DOPAC and HVA were detected using an electrochemical detector. […]

In the case of `O=C(N[C@H](CO)[C@H](O)c1ccc([N+](=O)[O-])cc1)C(Cl)Cl` [Chloramphenicol, chloramphenicol], the “concentration effective against sensitive bacterial strains” value in series [1] was at most 8 µg/mL.

Take `Nc1nc2c(ncn2COCCO)c(=O)[nH]1` [Acyclovir, acyclovir]: the “concentrations achieved in the CNS as share of those achieved in plasma” value in series [2] was 30-50%.

Consider `CC#C[C@]1(O)CC[C@H]2[C@@H]3CCC4=CC(=O)CCC4=C3[C@@H](c3ccc(N(C)C)cc3)C[C@@]21C` [mifepristone, (11,17)-11-[4-(dimethylmino)phenyl]-17-hydroxy-17-(1-propynyl)estra-4,9-dien-3-one], for which the “increase in brain dopamine metabolite levels following clozapine, mifepristone-treated vs placebo” value in series [3] (clozapine 15 mg/kg s.c.) is “greater”. Besides, in series [3] (haloperidol 1 mg/kg s.c.), the “increase in brain dopamine metabolite levels following haloperidol, mifepristone-treated vs placebo” value is reported as “greater”. In addition, the “brain ampicillin concentration, mifepristone-treated vs placebo” value in series [4] is reported as “greater”. For the same molecule, in series [5] (clozapine 15 mg/kg s.c.), the “brain concentration of clozapine, mifepristone-treated vs placebo” value is reported as “greater”. Moreover, the “brain concentration of haloperidol, mifepristone-treated vs placebo” value in series [5] (haloperidol 1 mg/kg s.c.) is recorded as “greater”. The “brain methotrexate concentration, mifepristone-treated vs placebo” value in series [6] is recorded as “greater”. Besides, the “brain Amphotericin B concentration, mifepristone-treated vs placebo” value in series [7] is on record as “greater”. Besides, the “brain adriamycin concentration, mifepristone-treated vs placebo” value in series [8] is on record as “greater”.

In the case of `O=C(CCCN1CCC(O)(c2ccc(Cl)cc2)CC1)c1ccc(F)cc1` [haloperidol], in series [9], the “levels of HVA and DOPAC in the brain” value is reported as “elevated”.
